Results published in patent US20050070510A1, “Substituted tetracycline compounds as synergistic antifungal agents” (Paratek Pharmaceuticals, Inc., priority 2001, published 2005).

Tested on: COS-1 cells
Experiment: In vitro mammalian cytotoxicity assay (Resazurin)

Structure (SMILES) | In Vitro Cytotoxicity
CN(C)[C@@H]1C(O)=C(C(N)=O)C(=O)[C@@]2(C#N)C(O)=C3C(=O)c4c(O)ccc(-c5ccc6c(c5)OCO6)c4C[C@@]3(N)C[C@@]12N [EO] | ** (toxicities less than 25 μg/mL are represented by **)
CN(C)[C@@H]1C(O)=C(C(N)=O)C(=O)[C@@]2(C#N)C(O)=C3C(=O)c4c(O)ccc(-c5ccco5)c4C[C@@]3(N)C[C@@]12N [GO] | ** (toxicities less than 25 μg/mL are represented by **)
CN(C)c1cc(CNC(=O)Nc2ccc(OC(F)(F)F)cc2)c(O)c2c1C[C@@]1(N)C[C@@]3(N)[C@H](N(C)C)C(O)=C(C(N)=O)C(=O)[C@@]3(C#N)C(O)=C1C2=O [NE] | * (toxicities greater than >25 μg/ml are represented by *)
CCN(CC)Cc1ccc(OC)c(-c2ccc(O)c3c2C[C@@]2(N)C[C@@]4(N)[C@H](N(C)C)C(O)=C(C(N)=O)C(=O)[C@@]4(C#N)C(O)=C2C3=O)c1 [LR] | * (toxicities greater than >25 μg/ml are represented by *)
CCc1cc(CNCC(C)C)c(O)c2c1C[C@@]1(N)C[C@@]3(N)[C@H](N(C)C)C(O)=C(C(N)=O)C(=O)[C@@]3(C#N)C(O)=C1C2=O [RK] | * (toxicities greater than >25 μg/ml are represented by *)
CN(C)[C@@H]1C(O)=C(C(N)=O)C(=O)[C@@]2(C#N)C(O)=C3C(=O)c4c(O)ccc(-c5cncc(Br)c5)c4C[C@@]3(N)C[C@@]12N [VF] | ** (toxicities less than 25 μg/mL are represented by **)
CCCCCc1cc(N(C)C)c2c(c1O)C(=O)C1=C(O)[C@]3(C#N)C(=O)C(C(N)=O)=C(O)[C@@H](N(C)C)[C@]3(N)C[C@]1(N)C2 [KW] | ** (toxicities less than 25 μg/mL are represented by **)
COC(=O)CCC(=O)Nc1ccc(-c2ccc(O)c3c2C[C@@]2(N)C[C@@]4(N)[C@H](N(C)C)C(O)=C(C(N)=O)C(=O)[C@@]4(C#N)C(O)=C2C3=O)cc1 [UT] | ** (toxicities less than 25 μg/mL are represented by **)
CN(C)c1cc(-c2cccc(O)c2)c(O)c2c1C[C@@]1(N)C[C@@]3(N)[C@H](N(C)C)C(O)=C(C(N)=O)C(=O)[C@@]3(C#N)C(O)=C1C2=O [ES] | ** (toxicities less than 25 μg/mL are represented by **)
COCCOC(=O)NCc1cc(N(C)C)c2c(c1O)C(=O)C1=C(O)[C@]3(C#N)C(=O)C(C(N)=O)=C(O)[C@@H](N(C)C)[C@]3(N)C[C@]1(N)C2 [MT] | * (toxicities greater than >25 μg/ml are represented by *)
CCCCCC(=O)c1ccc(O)c2c1C[C@@]1(N)C[C@@]3(N)[C@H](N(C)C)C(O)=C(C(N)=O)C(=O)[C@@]3(C#N)C(O)=C1C2=O [TT] | ** (toxicities less than 25 μg/mL are represented by **)
CN(C)c1cc(CNC(=O)c2ccco2)c(O)c2c1C[C@@]1(N)C[C@@]3(N)[C@H](N(C)C)C(O)=C(C(N)=O)C(=O)[C@@]3(C#N)C(O)=C1C2=O [SW] | * (toxicities greater than >25 μg/ml are represented by *)
CN(C)c1cc(-c2ccc3c(c2)OCO3)c(O)c2c1C[C@@]1(N)C[C@@]3(N)[C@H](N(C)C)C(O)=C(C(N)=O)C(=O)[C@@]3(C#N)C(O)=C1C2=O [EH] | ** (toxicities less than 25 μg/mL are represented by **)
CCc1cncc(-c2ccc(O)c3c2C[C@@]2(N)C[C@@]4(N)[C@H](N(C)C)C(O)=C(C(N)=O)C(=O)[C@@]4(C#N)C(O)=C2C3=O)c1 [UY] | ** (toxicities less than 25 μg/mL are represented by **)
CN(C)c1cc(CNC(=O)Oc2ccc(Br)cc2)c(O)c2c1C[C@@]1(N)C[C@@]3(N)[C@H](N(C)C)C(O)=C(C(N)=O)C(=O)[C@@]3(C#N)C(O)=C1C2=O [MV] | ** (toxicities less than 25 μg/mL are represented by **)
CC(=O)O[C@H]1[C@@]2(N)C(=C(O)[C@]3(C#N)C(=O)C(C(N)=O)=C(O)[C@@H](N(C)C)[C@]13N)C(=O)c1c(ccc(N=[N+]=N)c1O)[C@@H]2N [DB] | ** (toxicities less than 25 μg/mL are represented by **)
CCC(=O)O[C@H]1[C@@]2(N)C(=C(O)[C@]3(C#N)C(=O)C(C(N)=O)=C(O)[C@@H](N(C)C)[C@]13N)C(=O)c1c(ccc(NC(=O)Nc3cccc4ccccc34)c1O)[C@@H]2N [BL] | * (toxicities greater than >25 μg/ml are represented by *)
CN(C)c1cc(C#CC2(O)CCCCC2)c(O)c2c1C[C@@]1(N)C[C@@]3(N)[C@H](N(C)C)C(O)=C(C(N)=O)C(=O)[C@@]3(C#N)C(O)=C1C2=O [FP] | * (toxicities greater than >25 μg/ml are represented by *)
CN(C)c1cc(-c2ccc(F)cc2F)c(O)c2c1C[C@@]1(N)C[C@@]3(N)[C@H](N(C)C)C(O)=C(C(N)=O)C(=O)[C@@]3(C#N)C(O)=C1C2=O [EX] | ** (toxicities less than 25 μg/mL are represented by **)
CN(C)[C@@H]1C(O)=C(C(N)=O)C(=O)[C@@]2(C#N)C(O)=C3C(=O)c4c(O)c(C(C)(C)C)cc(C(=O)Cl)c4C[C@@]3(N)C[C@@]12N [QA] | ** (toxicities less than 25 μg/mL are represented by **)
CC(O)CCc1ccc(O)c2c1C[C@@]1(N)C[C@@]3(N)[C@H](N(C)C)C(O)=C(C(N)=O)C(=O)[C@@]3(C#N)C(O)=C1C2=O (some centres unmarked) [IW] | * (toxicities greater than >25 μg/ml are represented by *)

Structure (SMILES) | In Vitro Cytotoxicity
CN(C)[C@@H]1C(O)=C(C(N)=O)C(=O)[C@@]2(C#N)C(O)=C3C(=O)c4c(O)ccc(-c5ccc(CNC(C)(C)C)o5)c4C[C@@]3(N)C[C@@]12N [SY] | * (toxicities greater than >25 μg/ml are represented by *)
CN(C)c1cc(CNC(=O)NCC(C)(C)C)c(O)c2c1C[C@@]1(N)C[C@@]3(N)[C@H](N(C)C)C(O)=C(C(N)=O)C(=O)[C@@]3(C#N)C(O)=C1C2=O [MC] | * (toxicities greater than >25 μg/ml are represented by *)
CN(C)[C@@H]1C(O)=C(C(N)=O)C(=O)[C@@]2(C#N)C(O)=C3C(=O)c4c(O)ccc(C#Cc5ccccc5F)c4C[C@@]3(N)C[C@@]12N [GS] | ** (toxicities less than 25 μg/mL are represented by **)
CN(C)c1ccc(NC(=O)NCc2cc(N(C)C)c3c(c2O)C(=O)C2=C(O)[C@]4(C#N)C(=O)C(C(N)=O)=C(O)[C@@H](N(C)C)[C@]4(N)C[C@]2(N)C3)cc1 [ND] | * (toxicities greater than >25 μg/ml are represented by *)
CN(C)[C@@H]1C(O)=C(C(N)=O)C(=O)[C@@]2(C#N)C(O)=C3C(=O)c4c(O)ccc(/C=C/c5ccccn5)c4C[C@@]3(N)C[C@@]12N [FA] | ** (toxicities less than 25 μg/mL are represented by **)
CN(C)c1cc(C#Cc2cccnc2)c(O)c2c1C[C@@]1(N)C[C@@]3(N)[C@H](N(C)C)C(O)=C(C(N)=O)C(=O)[C@@]3(C#N)C(O)=C1C2=O [JH] | ** (toxicities less than 25 μg/mL are represented by **)
CN(C)[C@@H]1C(O)=C(C(N)=O)C(=O)[C@@]2(C#N)C(O)=C3C(=O)c4c(O)ccc(-c5ccc(NC(=O)C6CC6)cc5)c4C[C@@]3(N)C[C@@]12N [PB] | * (toxicities greater than >25 μg/ml are represented by *)
CN(C)c1cc(CNC(=O)Nc2ccc(Cl)cc2)c(O)c2c1C[C@@]1(N)C[C@@]3(N)[C@H](N(C)C)C(O)=C(C(N)=O)C(=O)[C@@]3(C#N)C(O)=C1C2=O [MW] | ** (toxicities less than 25 μg/mL are represented by **)
CN(C)c1cc(C#Cc2ccc(N)cc2)c(O)c2c1C[C@@]1(N)C[C@@]3(N)[C@H](N(C)C)C(O)=C(C(N)=O)C(=O)[C@@]3(C#N)C(O)=C1C2=O [JG] | * (toxicities greater than >25 μg/ml are represented by *)
CN(C)[C@@H]1C(O)=C(C(N)=O)C(=O)[C@@]2(C#N)C(O)=C3C(=O)c4c(O)ccc(CCCNS(C)(=O)=O)c4C[C@@]3(N)C[C@@]12N [IV] | * (toxicities greater than >25 μg/ml are represented by *)
CN(C)[C@@H]1C(O)=C(C(=O)CC(C)(C)C)C(=O)[C@@]2(C#N)C(O)=C3C(=O)c4c(O)c(C(C)(C)C)cc(-c5cccc([N+](=O)O)c5)c4C[C@@]3(N)C[C@@]12N [KT] | ** (toxicities less than 25 μg/mL are represented by **)
COc1ccc(CNCc2cccc(Cl)c2)cc1-c1ccc(O)c2c1C[C@@]1(N)C[C@@]3(N)[C@H](N(C)C)C(O)=C(C(N)=O)C(=O)[C@@]3(C#N)C(O)=C1C2=O [NJ] | ** (toxicities less than 25 μg/mL are represented by **)
CCC(CC)CCc1ccc(O)c2c1C[C@@]1(N)C[C@@]3(N)C(N(C)C)C(O)=C(C(N)=O)C(=O)[C@@]3(C#N)C(O)=C1C2=O (some centres unmarked) [QX] | ** (toxicities less than 25 μg/mL are represented by **)
CN(C)[C@@H]1C(O)=C(C(N)=O)C(=O)[C@@]2(C#N)C(O)=C3C(=O)c4c(O)ccc(-c5ccoc5)c4C[C@@]3(N)C[C@@]12N [EP] | ** (toxicities less than 25 μg/mL are represented by **)
CN(C)[C@@H]1C(O)=C(C(N)=O)C(=O)[C@@]2(C#N)C(O)=C3C(=O)c4c(O)c(C(C)(C)C)cc(-c5cccc([N+](=O)O)c5)c4C[C@@]3(N)C[C@@]12N [KS] | ** (toxicities less than 25 μg/mL are represented by **)
CC(C)COC(=O)Nc1ccc(-c2ccc(O)c3c2C[C@@]2(N)C[C@@]4(N)[C@H](N(C)C)C(O)=C(C(N)=O)C(=O)[C@@]4(C#N)C(O)=C2C3=O)cc1 [OD] | ** (toxicities less than 25 μg/mL are represented by **)
CN(C)CCCc1ccc(O)c2c1C[C@@]1(N)C[C@@]3(N)[C@H](N(C)C)C(O)=C(C(=O)NC(C)(C)C)C(=O)[C@@]3(C#N)C(O)=C1C2=O [HH] | * (toxicities greater than >25 μg/ml are represented by *)
CN(C)[C@@H]1C(O)=C(C(N)=O)C(=O)[C@@]2(C#N)C(O)=C3C(=O)c4c(O)cccc4[C@H](N)[C@@]3(N)[C@H](OC(=O)C34CC5CC(CC(C5)C3)C4)[C@@]12N [CJ] | ** (toxicities less than 25 μg/mL are represented by **)
CN(C)[C@@H]1C(O)=C(C(N)=O)C(=O)[C@@]2(C#N)C(O)=C3C(=O)c4c(ccc(-c5ccc6c(c5)OCO6)c4O)[C@H](N)[C@@]3(N)[C@H](O)[C@@]12N [PV] | ** (toxicities less than 25 μg/mL are represented by **)
CCOC(=O)c1coc(NCc2cc(N(C)C)c3c(c2O)C(=O)C2=C(O)[C@]4(C#N)C(=O)C(C(N)=O)=C(O)[C@@H](N(C)C)[C@]4(N)C[C@]2(N)C3)n1 [TF] | * (toxicities greater than >25 μg/ml are represented by *)
